The results in this text go back to patent US11015216B2, “Substituted imidazo[1,2-a]pyrazines as luciferase substrates” (PROMEGA CORPORATION, priority 2016, dated 2021).

The test concerns luciferase. The test can be described thus: Additional luciferase substrate assay, compared to known analogue C-1 (Table 3). It is filed as biochemical. Particulars: relative to C-1 (=1). The protocol: Luminescence Assay Procedure: Each compound to be screened was dissolved in DMSO (5 mM) and then further diluted to 100 uM in NANO-GLOR Luciferase Assay Buffer. Each diluted substrate was then combined in equal volumes with purified NanoLuc® Luciferase diluted into CO2 independent media+10% FBS. Initial light output for each substrate was measured in a GloMax®-Multi+ luminometer three minutes after substrate addition and then at five minute intervals as a means to determine signal half-life.
The compounds of formula (I) were also evaluated for their ability to be luciferase substrates in an additional assay.
As for `CCOP(=O)(OCC)c1nc2c(Cc3ccccc3)[nH]c(-c3ccccc3)cn-2c1=O` [Compound 1, diethyl (8-benzyl-3-oxo-6-phenyl-3,7-dihydroimidazo[1,2-a]pyrazin-2-yl)phosphonate], the “RLU (@100 uM)” value is reported as 0.00048.
Consider `COc1cccc(Cc2nc3c(Cc4ccccc4)[nH]c(-c4ccccc4)cn-3c2=O)c1` [Compound 17], for which the “RLU (@100 uM)” value is 0.83.
On to `COc1cc(Cc2nc3c(Cc4ccccc4)[nH]c(-c4ccccc4)cn-3c2=O)ccc1F` [Compound 18], for which the “RLU (@100 uM)” value came to 0.4.
As for `COc1ccc(Cc2nc3c(Cc4ccccc4)[nH]c(-c4ccccc4)cn-3c2=O)cc1F` [Compound 21], the “RLU (@100 uM)” value is 0.32.
On to `CC(C)(C)OC(=O)Nc1cccc(Cc2nc3c(Cc4ccccc4)[nH]c(-c4ccccc4)cn-3c2=O)c1` [Compound 23], for which the “RLU (@100 uM)” value stood at 0.001.
Turning to `COc1ccc(Cc2nc3c(Cc4ccccc4)[nH]c(-c4ccccc4)cn-3c2=O)s1` [Compound 24], the “RLU (@100 uM)” value came to 0.68.
`Nc1cccc(Cc2nc3c(Cc4ccccc4)[nH]c(-c4ccccc4)cn-3c2=O)c1` [Compound 25]: the “RLU (@100 uM)” value worked out at 0.15.
For the compound `O=c1c(Cc2ccc(-c3ccccc3)cc2)nc2c(Cc3ccccc3)[nH]c(-c3ccccc3)cn1-2` [Compound 26], the “RLU (@100 uM)” value stood at 0.046.
With `O=c1c(CC2=Cc3ccccc3OC2)nc2c(Cc3ccccc3)[nH]c(-c3ccccc3)cn1-2` [Compound 27], the “RLU (@100 uM)” value was 0.1.
In the case of `O=c1c(Cc2cccc3c2oc2ccccc23)nc2c(Cc3ccccc3)[nH]c(-c3ccccc3)cn1-2` [Compound 28], the “RLU (@100 uM)” value stood at 0.01.
Next, `O=c1c(C/C=C/c2ccccc2)nc2c(Cc3ccccc3)[nH]c(-c3ccccc3)cn1-2` [Compound 29]: 0.13; `CC(C)(C)OC(=O)Nc1ccc(Cc2nc3c(Cc4ccccc4)[nH]c(-c4ccccc4)cn-3c2=O)cc1` [Compound 30]: 0.001; `C=CCOc1ccc(Cc2nc3c(Cc4ccccc4)[nH]c(-c4ccccc4)cn-3c2=O)cc1OC` [Compound 31]: 0.054.
Turning to `COc1cc(Cc2nc3c(Cc4ccccc4)[nH]c(-c4ccccc4)cn-3c2=O)ccc1O` [Compound 32], the “RLU (@100 uM)” value is recorded as 0.052.
On to `Cn1cnnc1Sc1ccc(Cc2nc3c(Cc4ccccc4)[nH]c(-c4ccccc4)cn-3c2=O)o1` [Compound 33], for which the “RLU (@100 uM)” value was 0.017.
In the case of `O=c1c(Cc2ccc(-c3ccccn3)s2)nc2c(Cc3ccccc3)[nH]c(-c3ccccc3)cn1-2` [Compound 34], the “RLU (@100 uM)” value came to 0.02.
In the case of `CCCCCCCCCCCCc1nc2c(Cc3ccccc3)[nH]c(-c3ccccc3)cn-2c1=O` [Compound 35], the “RLU (@100 uM)” value is reported as 0.0005.
Next, `O=c1c(Cc2ccncc2)nc2c(Cc3ccccc3)[nH]c(-c3ccccc3)cn1-2` [Compound 36]: 0.0017.
In the case of `O=c1c(Cc2ccc(C3CCCCC3)s2)nc2c(Cc3ccccc3)[nH]c(-c3ccccc3)cn1-2` [Compound 37], the “RLU (@100 uM)” value turned out to be 0.05.
For `O=c1c(Cc2ccc(-c3cccs3)s2)nc2c(Cc3ccccc3)[nH]c(-c3ccccc3)cn1-2` [Compound 38], the “RLU (@100 uM)” value was determined as 0.054.
With `CC(C)Cc1ccc(Cc2nc3c(Cc4ccccc4)[nH]c(-c4ccccc4)cn-3c2=O)s1` [Compound 39], the “RLU (@100 uM)” value turned out to be 0.29.
For the compound `Cn1nc(-c2ccc(Cc3nc4c(Cc5ccccc5)[nH]c(-c5ccccc5)cn-4c3=O)s2)cc1C(F)(F)F` [Compound 40], the “RLU (@100 uM)” value is recorded as 0.0042.
Regarding `O=c1c(Cc2ccc(C(F)(F)F)o2)nc2c(Cc3ccccc3)[nH]c(-c3ccccc3)cn1-2` [Compound 41], the “RLU (@100 uM)” value worked out at 0.82.
Take `COCc1ccc(Cc2nc3c(Cc4ccccc4)[nH]c(-c4ccccc4)cn-3c2=O)o1` [Compound 42]: the “RLU (@100 uM)” value was determined as 0.52.
For the compound `O=c1c(Cc2c(F)c(F)c(F)c(F)c2F)nc2c(Cc3ccccc3)[nH]c(-c3ccccc3)cn1-2` [Compound 43], the “RLU (@100 uM)” value was 0.052.
Consider `O=c1c(Cc2cc(C(F)(F)F)cc(C(F)(F)F)c2)nc2c(Cc3ccccc3)[nH]c(-c3ccccc3)cn1-2` [Compound 44], for which the “RLU (@100 uM)” value is 0.019.
On to `Cn1nc(C(F)(F)F)c(Cc2nc3c(Cc4ccccc4)[nH]c(-c4ccccc4)cn-3c2=O)c1Cl` [Compound 45], for which the “RLU (@100 uM)” value stood at 0.0012.
Take `O=C(O)c1cccc(Cc2nc3c(Cc4ccccc4)[nH]c(-c4ccccc4)cn-3c2=O)c1` [Compound 47]: the “RLU (@100 uM)” value was 0.013.
`NCc1cccc(Cc2nc3c(Cc4ccccc4)[nH]c(-c4ccccc4)cn-3c2=O)c1` [Compound 48]: the “RLU (@100 uM)” value is 0.0013.
For the compound `CS(=O)(=O)Nc1cccc(Cc2nc3c(Cc4ccccc4)[nH]c(-c4ccccc4)cn-3c2=O)c1` [Compound 49], the “RLU (@100 uM)” value stood at 0.002.
The result for `COCc1cc(Cc2nc3c(Cc4ccccc4)[nH]c(-c4ccccc4)cn-3c2=O)ccc1OC` [Compound 50] reads 0.023; that for `CN(C)c1cccc(Cc2nc3c(Cc4ccccc4)[nH]c(-c4ccccc4)cn-3c2=O)c1` [Compound 51], 0.49.
Next, `COCc1ccc(Cc2nc3c(Cc4ccccc4)[nH]c(-c4ccccc4)cn-3c2=O)s1` [Compound 52]: 0.45; `COCc1cccc(Cc2nc3c(Cc4ccccc4)[nH]c(-c4ccccc4)cn-3c2=O)c1` [Compound 53]: 0.47.
Next, `O=c1c(Cc2cccc(CO)c2)nc2c(Cc3ccccc3)[nH]c(-c3ccccc3)cn1-2` [Compound 54]: 0.04; `CCCSc1ncc(Cc2nc3c(Cc4ccccc4)[nH]c(-c4ccccc4)cn-3c2=O)cn1` [Compound 56]: 0.0098; `COc1ccc(Cc2nc3c(Cc4ccccc4)[nH]c(-c4ccccc4)cn-3c2=O)cc1OC` [Compound 57]: 0.063.
On to `CSc1cccc(Cc2nc3c(Cc4ccccc4)[nH]c(-c4ccccc4)cn-3c2=O)c1` [Compound 58], for which the “RLU (@100 uM)” value is recorded as 0.47.
The result for `O=c1c(Cc2ccc3c(c2)OCO3)nc2c(Cc3ccccc3)[nH]c(-c3ccccc3)cn1-2` [Compound 59] reads 0.72; that for `CN(C)Oc1cccc(Cc2nc3c(Cc4ccccc4)[nH]c(-c4ccccc4)cn-3c2=O)c1` [Compound 60], 0.00038; that for `CCOc1cccc(Cc2nc3c(Cc4ccccc4)[nH]c(-c4ccccc4)cn-3c2=O)c1` [Compound 61], 0.49.
With `COCCOc1cccc(Cc2nc3c(Cc4ccccc4)[nH]c(-c4ccccc4)cn-3c2=O)c1` [Compound 62], the “RLU (@100 uM)” value was 0.057.
Take `O=c1c(Cc2cnccn2)nc2c(Cc3ccccc3)[nH]c(-c3ccccc3)cn1-2` [Compound 84]: the “RLU (@100 uM)” value is 0.003.
With `Cn1c(Cc2nc3c(Cc4ccccc4)[nH]c(-c4ccccc4)cn-3c2=O)cc2sccc21` [Compound 85], the “RLU (@100 uM)” value is given as 0.038.
Take `O=c1c(C=Cc2ccccc2)nc2c(Cc3ccccc3)[nH]c(-c3ccccc3)cn1-2` [Compound 86]: the “RLU (@100 uM)” value is reported as 0.0002.
Take `O=c1c(Cc2ccco2)nc2c(Cc3ccccc3)[nH]c(-c3ccccc3)cn1-2` [Compound C-1, 8-benzyl-2-(furan-2-ylmethyl)-6-phenylimidazo[1,2-a]pyrazin-3(7H)-one, reference compound]: the “RLU (@100 uM)” value is given as 1.
